Laboratory results from US12054447B2, “PCNA inhibitors” (City of Hope, priority 2015, dated 2024).
Entries after “also recorded” stand apart in the source; their conditions may differ.

Assays:
PBMC = assay: Cell growth, CellTitor-Glo assay, 72 h; format: cell-based, human; settings: Homo sapiens; PBMC (non-malignant)
Experimental: The human NB cell lines, SK-N-DZ, SK-N-BE(2)c, SK-N-AS, and LAN-5 obtained from the American Type Culture Collection (Rockville, MD), were cultured in DMEM with 10% fetal bovine serum (FBS), 100 units/ml penicillin, and 100 μg/ml streptomycin in the presence of 5% CO2 at 37° C. Human PBMCs from a healthy donor were purchased from Sanguine BioSciences (Valencia, CA) and grown in RPMI1640 with 10% FBS, 100 units/ml penicillin, 100 μg/ml streptomycin, and 10 ng/ml IL-2 in the presence of 5% CO2 at 37° C. Human embryonic progenitor cell line 7SM0032 was acquired from Millipore (Billerica, MA) and grown in the hEPM-1 Media Kit purchased from the same company. The plasmid pCBASce expresses the rare cutting I-SceI meganuclease. The U20S-derived cell lines, DR-GFP and EJ5-GFP, each contain a stably transfected reporter gene for DSB repair mediated by HR and end joining (EJ), respectively. These cell lines were cultured in DMEM medium with 10% FBS at 37° C. in the presence of 5% CO2.
(§1) To measure the effect of the compounds on cell growth, cells were seeded at 3×10^4/ml into a 96-well plate. Once attached, cells were treated with various concentrations of AOH1160 for 72 h. Cell growth was measured by the CellTitor-Glo assay (Promega, Madison, WI) according to the manufacturer's instructions. To measure apoptosis, cells were seeded at 1×10^5/ml onto a chamber slide. Once attached, cells were treated with the 500 nM AOH1160 for 24 h. Cells were fixed and analyzed by a TUNEL assay using the TMR red in situ cell death detection kit (Roche Diagnostics, Indianapolis, IN).

NB cell lines = assay: Cell viability assay on NB cell lines; format: cell-based, human; settings: for concentrations that selectively kill neuroblastoma cells: FIG. 14A
Experimental: as §1
To identify small molecule compounds that target the PCNA and FEN1 interface, we started with known crystal structures of the PCNA/FEN1 complex that are available from the RCSB protein database. To improve the likelihood of identifying novel small molecules that specifically target caPCNA, we focused our virtual screen on the binding pocket in PCNA delineated by residues L126 and Y133 and screened databases consisting of more than 6.8 million chemical structures available at the AMRI. A set of 57 compounds identified by the virtual screen was acquired and further tested in a cell viability assay. A compound (AOH39) was selected for further development due to its anti-cancer activity and selectivity.

non-malignant cells = assay: Toxicity to non-malignant cells; format: cell-based
Experimental: as §1
To improve the anti-tumor potency of the compound while preserving its favorable selectivity, a series of compounds were synthesized and tested. […] The combined improvements in potency and selectivity lead to a significant improvement in the therapeutic window (FIG. 1). AOH1160 was tested in a broad range of non-malignant cells, including human primary mammary epithelial and small airway epithelial cells, and no significant toxicity was found in these cells up to a concentration of 10 μM.

human TRβ = human TRβ (Homo sapiens, UniProt P10828); assay: Human thyroid hormone receptor beta (TRβ) reporter assay; format: cell-based; settings: TRβ reporter cells, 24 h
Source text: Reporter cells constitutively expressing human TRβ and containing a luciferase reporter gene functionally linked to a TRβ-responsive promoter were purchased from Indigo Biosciences (State College, PA). […] The effect of each compound on TRβ activity was examined by measuring the luciferase reporter gene expression according to the manufacturer's instruction.

7SM0032 = assay: Cell cycle analysis (PI, flow cytometry); format: cell-based, human; settings: for cell cycle effect on normal cells: 7SM0032
Experimental: (§2) Cells were seeded at 1×10^5/ml in a 6-well plate. Once attached overnight, cells were treated with or without AOH1160 for 6 or 24 h. After being fixed in 60% ethanol and stained with propidium iodide (PI), cells were analyzed by flow cytometry to determine the cellular PI fluorescence intensity. The flow cytometry data were analyzed by the FlowJo program to model various cell populations.

SK-N-DZ [1] = assay: Cell cycle analysis (PI, flow cytometry); format: cell-based, human; settings: NB cells (SK-N-DZ), 500 nM
Experimental: as §2

SK-N-DZ [2] = assay: Clonogenic assay with cisplatin; format: cell-based, human; settings: cisplatin with or without 500 nM AOH1160 for 18 h, 3 weeks
Experimental: Three hundred human SK-N-DZ NB cells were seeded onto a 60-mm tissue culture dish. Once attached overnight, cells were treated with or without various concentrations of cisplatin in the presence or absence of 500 nM of AOH1160 for 18 h. Cells were washed twice with growth medium and were cultured in fresh medium for 3 weeks to allow surviving cells to form colonies. The medium was changed every 3 days throughout the experiment. The colonies formed under each treatment conditions were counted after being stained with 0.5% crystal violet.

[3] = Pharmacokinetics (PK) of AOH1160 in animals; format: in vivo, Rat; settings: for AUC(0-inf) / Cmax / Tmax / half-life: rat, in vivo, po, 20 mg/kg, Rat PO 20 mg/kg
Liver microsome assay = format: in vitro ADME, human
Source text: FIG. 11. AOH1160 stability in a liver microsome assay. Liver is a major organ responsible for drug metabolism. We tested the stability of AOH1160 in a liver microsome assay. By analyzing the metabolites, we determined a major pathway responsible for AOH1160 metabolism.
Liver is a major organ responsible for drug metabolism. We tested the stability of AOH1160 in a liver microsome assay (FIG. 11). By analyzing the metabolites, we determined a major pathway responsible for AOH1160 metabolism.

[4] = tested on: small cell lung cancer cells; assay: Killing of small cell lung cancer cells; format: cell-based; settings: FIG. 14B
[5] = tested on: neuroblastoma cells (SH-SY5Y and SK-N-BE(2)c); assay: Cell cycle analysis; format: cell-based
Experimental: as §2

CAKI-1 = assay: NCI-60 panel test; format: cell-based; settings: Homo sapiens; CAKI-1, NCI-60 5-dose study
Experimental: FIG. 7. NCI-60 panel test. The effect of AOH1160 on growth of the NCI-60 panel, which consists of 60 cancer cell lines representing 9 major cancer types, was tested in a 5-dose study. Shown are the Log IC50 values determined for each cell line. […] This study was performed by the National Institute of Cancer.
As observed in FIG. 7, the effect of AOH1160 on growth of the NCI-60 panel, which consists of 60 cancer cell lines representing 9 major cancer types, was tested in a 5-dose study. Shown are the Log IC50 values determined for each cell line.

Sequence of human TRβ (P10828 whole entry): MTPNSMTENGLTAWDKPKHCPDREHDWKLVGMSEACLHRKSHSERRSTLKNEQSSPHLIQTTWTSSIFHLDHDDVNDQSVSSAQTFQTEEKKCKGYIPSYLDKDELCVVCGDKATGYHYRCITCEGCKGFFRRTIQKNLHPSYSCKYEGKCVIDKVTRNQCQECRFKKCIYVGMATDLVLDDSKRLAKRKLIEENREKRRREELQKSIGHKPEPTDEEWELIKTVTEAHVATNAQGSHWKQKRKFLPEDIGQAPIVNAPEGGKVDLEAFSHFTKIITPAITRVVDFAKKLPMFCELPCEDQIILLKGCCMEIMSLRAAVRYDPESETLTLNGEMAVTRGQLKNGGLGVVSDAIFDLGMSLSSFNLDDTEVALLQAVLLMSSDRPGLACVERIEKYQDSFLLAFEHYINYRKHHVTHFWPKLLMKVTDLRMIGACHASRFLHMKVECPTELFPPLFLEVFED

Question: For `O=C(CNC(=O)c1cccc2ccccc12)Nc1ccccc1Oc1ccccc1` [AOH1160], which IC50 (PBMC) is on record?
Answer: > 20000 nM

Question: What about the “concentrations that selectively kill neuroblastoma cells” value (NB cell lines) of the same compound?
Answer: below micromolar concentrations

Question: And the IC50 (NB cell lines; Homo sapiens, multiple NB cell lines, read-out: IC50 range over NB cell lines)?
Answer: 180 to 220 nM

Question: And the “increase in compound potency over AOH39 in cell viability assays” value (NB cell lines; NB cells)?
Answer: 6-7 fold

Question: And the “toxicity to non-malignant cells compared with AOH39” value (non-malignant cells; PBMC and 7SM0032 cells)?
Answer: less toxic to non-malignant PBMC and 7SM0032 cells than AOH39

Question: And the “concentration causing significant toxicity (none found up to)” value (non-malignant cells; broad range of non-malignant cells incl. human primary mammary epithelial and small airway epithelial cells)?
Answer: > 10 µM

Question: What about the “thyroid hormone activity in a TR reporter assay” value (human TRβ) of the same compound?
Answer: did not show any thyroid hormone activity

Question: And the “cell cycle effect on normal cells” value (7SM0032)?
Answer: exerted little effect on normal cells

Question: What about the cell cycle effect (7SM0032; 7SM0032 cells, 500 nM) of the same compound?
Answer: doesn't significantly change the cell cycle profiles

Question: What about the cell cycle effect (SK-N-DZ [1]) of the same compound?
Answer: causes cell cycle arrest

Question: What about the “sensitivity to cisplatin (colony formation)” value (SK-N-DZ [2]) of the same compound?
Answer: more sensitive to cisplatin treatment in the presence of AOH1160 than in its absence

Question: And the oral availability ([3]; animals)?
Answer: orally available

Question: What about the AUC(0-inf) ([3]; BID dosing) of the same compound?
Answer: 429 ± 195 ng·h/mL

Question: And the Cmax ([3]; BID dosing)?
Answer: 73 ± 23 ng/mL

Question: What about the Tmax ([3]; BID dosing) of the same compound?
Answer: 6 h

Question: And the half-life ([3]; BID dosing)?
Answer: 4.3 ± 1.7 h

Question: What about the AUC(0-inf) ([3]; Single dosing) of the same compound?
Answer: 383 ± 110 ng·h/mL

Question: What about the Cmax ([3]; Single dosing) of the same compound?
Answer: 50 ± 31 ng/mL

Question: And the Tmax ([3]; Single dosing)?
Answer: 3.3 ± 2.3 h

Question: And the half-life ([3]; Single dosing)?
Answer: 3.8 ± 31 h

Question: And the “metabolic pathway in liver microsomes” value (Liver microsome assay; human liver microsomes, NADPH)?
Answer: mainly metabolized through mono- and di-hydroxylation in a NADPH-dependent manner

Question: And the “concentrations that selectively kill small cell lung cancer cells” value [4]?
Answer: below micromolar concentrations

Question: And the cell cycle effect [5]?
Answer: caused S/G2 cell cycle arrest

Question: What about the GI50 (CAKI-1) of the same compound?
Answer: 355 nM

Question: Which IC50 (PBMC) does the source give for `O=C(CNC(=O)c1cccc2ccccc12)Nc1ccccc1Oc1ccc(O)cc1` [PCNA1] here?
Answer: > 20000 nM

Question: With `O=C(CNC(=O)c1cccc2ccccc12)Nc1ccccc1Oc1cccc(O)c1` [PCNA2] as the compound, how does the IC50 (PBMC) read?
Answer: > 20000 nM

Question: With `COc1ccc(Oc2ccccc2NC(=O)CNC(=O)c2cccc3ccccc23)cc1` [PCNA6] as the compound, how does the IC50 (PBMC) read?
Answer: > 20000 nM

Question: Which results are given for `COc1cccc(Oc2ccccc2NC(=O)CNC(=O)c2cccc3ccccc23)c1` [PCNA7/ AOH1996]?
Answer: IC50 (PBMC): > 20000 nM; concentrations that selectively kill neuroblastoma cells (NB cell lines): below micromolar concentrations; toxicity to non-malignant cells (non-malignant cells; neural crest stem cells (7SM0032), hSAEC, PBMCs): minimal toxicity to non-malignant cells; cell cycle effect on normal cells (7SM0032): exerted little effect on normal cells; stability in a liver microsome assay (Liver microsome assay; NADPH dependent metabolism): stable to NADPH dependent metabolism; also recorded: stable in a liver microsome assay; concentrations that selectively kill small cell lung cancer cells [4]: below micromolar concentrations; cell cycle effect [5]: caused S/G2 cell cycle arrest; GI50 (CAKI-1): 912 nM
